Experimental data published in PubChem BioAssay AID449732 (Southern Research Specialized Biocontainment Screening …, 2010).

Each molecule was assayed on RSV titer reduction in cells, log virus titer (assay: antiviral activity against RSV, titer decrease, cell-based, titer reduction, selected compounds (AID 449732)). Conditions: stronger effect = higher value.
For `COc1ccccc1CNC(=O)C1CCN(S(=O)(=O)c2cccc3nonc23)CC1`, the max log titer decrease was 8.58.
For `CCOC(=O)C1=C(NC(=S)NC(=O)c2ccccc2)c2ccccc2CC1C(C)C` (stereo unspecified), the max log titer decrease was 9.13.
`Cc1cccc(NC(=O)CSc2nc3ccccc3nc2N2CCCCC2)c1` gave a max log titer decrease of 9.13.
In the case of `COCCCNC(=O)c1ccc(Cn2c(=O)c3ccccc3n(Cc3ccc(C)cc3)c2=O)cc1`, the max log titer decrease is reported as 8.58.
In the case of `O=C(O)C1CC=CCC1C(=O)Nc1ccc(S(=O)(=O)N2CCCc3ccccc32)cc1` (stereo unspecified), the max log titer decrease is reported as 8.58.
Work on `Cc1ccc(-c2nc3cccnc3s2)cc1NS(=O)(=O)c1cccs1` yielded a max log titer decrease of 9.13.
`CCOc1ccc2nc(NC(=O)C(CCSC)NS(=O)(=O)c3cccs3)sc2c1` (stereo unspecified) gave a max log titer decrease of 8.58.
For `Cn1c(C(=O)NCc2ccccc2)cc2oc3ccccc3c21`, the max log titer decrease was 8.58.
Work on `O=C(CCNC(=O)c1ccc(Cl)cc1)NC1CCCc2ccccc21` (stereo unspecified) yielded a max log titer decrease of 8.6.
Molecule `Cc1ccc2c(c1)cc(C(=O)NCc1ccccc1)n2C` has a max log titer decrease of 8.03.
`CC1Cc2ccccc2N1S(=O)(=O)c1cccc(C(=O)N2CCN(c3ncccn3)CC2)c1` (stereo unspecified) showed a max log titer decrease of 8.6.
In the case of `COc1ccc(C(=O)Nc2nc3c(s2)CCCC3)cc1S(=O)(=O)N1CCCc2ccccc21`, the max log titer decrease is reported as 8.6.
`Cc1ccc(CSCC(=O)Nc2ccccc2C(=O)O)cc1` showed a max log titer decrease of 8.03.
Molecule `O=C(NCc1ccco1)c1ccc(Cn2c(=O)c3ccccc3n(Cc3ccc(Cl)cc3)c2=O)cc1` has a max log titer decrease of 8.58.
For `CSc1ncccc1C(=O)Nc1nc(C(C)(C)C)cs1`, the max log titer decrease was 5.6.
For `O=C(O)c1cccnc1Nc1ccc(Cl)cc1`, the max log titer decrease was 9.13.
`CCOC(=O)c1c(-c2cccc(C)c2)csc1NC(=O)c1c(-c2ccccc2)noc1C` gave a max log titer decrease of 8.03.
With `COc1ccccc1NCC(=O)Nc1cc(S(=O)(=O)N2CCOCC2)ccc1N1CCOCC1` the max log titer decrease was 4.6.
With `CN(C)C(=O)COC(=O)c1ccccc1Nc1ccc(SC(F)F)cc1` the max log titer decrease was 8.6.
`CCOC(=O)c1ccc(NC(=S)N2CCSC2c2ccc(Br)cc2)cc1` (stereo unspecified) was tested, and the max log titer decrease was 8.03.
`CCOc1ccc(CNC(=O)c2cc3oc4ccccc4c3n2C)cc1` gave a max log titer decrease of 8.58.
`CC(C)(C)C(=O)Nc1sc(-c2ccccc2)cc1C(=O)O` showed a max log titer decrease of 5.66.
`O=S(=O)(c1cccc(-c2csc(-c3ccccc3)n2)c1)N1CCOCC1` gave a max log titer decrease of 8.58.
Work on `Cc1nc2ccccc2nc1Nc1cccc(Cl)c1` yielded a max log titer decrease of 8.03.
`CCN(c1ccccc1)S(=O)(=O)c1ccc(Cl)c(NC(=O)CSc2n[nH]c(N)n2)c1` was tested, and the max log titer decrease was 8.6.
`COc1cccc(C(=O)N(Cc2nc(-c3cccc(C)c3)no2)C(C)C)c1OC` gave a max log titer decrease of 8.03.
In the case of `COc1cccc(CNC(=O)c2cc3oc4ccccc4c3n2C)c1OC`, the max log titer decrease is reported as 8.58.
With `C#CCn1c(S(=O)(=O)Cc2ccc(F)cc2)nc(-c2ccccc2)c1-c1ccccc1` the max log titer decrease was 3.37.
With `c1ccc(-c2nn3c(Cn4cnc5ccccc54)nnc3s2)cc1` the max log titer decrease was 8.58.
With `O=C(NC(=S)Nc1ccccc1C(=O)O)c1ccc(-c2ccc(Br)cc2)o1` the max log titer decrease was 8.03.
For `O=C(CCNC(=O)c1ccc(Br)cc1)NC1CCCc2ccccc21` (stereo unspecified), the max log titer decrease was 8.6.
For `COc1ccc(C(c2c(NC(=O)c3ccco3)sc(C)c2C)N2CCOCC2)cc1OC` (stereo unspecified), the max log titer decrease was 8.58.
`Cc1c(NC(=O)COC(=O)c2cc(-c3ccc(-c4ccccc4)cc3)nc3ccccc23)c(=O)n(-c2ccccc2)n1C` was tested, and the max log titer decrease was 8.6.
Work on `Cc1sc2nc(C3CC3)nc(SCC(=O)N3c4ccccc4CC3C)c2c1C` (stereo unspecified) yielded a max log titer decrease of 9.13.
Work on `O=C(c1cc2nc(-c3ccccc3)cc(-c3ccccc3)n2n1)N1CCC2(CC1)OCCO2` yielded a max log titer decrease of 8.03.
Molecule `COc1ccc(N(CC(=O)NC2CCCCC2)C(=O)c2ccc(C)s2)c(OC)c1` has a max log titer decrease of 5.13.
`O=[N+]([O-])c1ccccc1S(=O)(=O)Nc1cccc(-c2ccc(N3CCCC3)nn2)c1` gave a max log titer decrease of 9.13.
For `Cc1cccc(-n2c(SCC(=O)Nc3ncc(Cl)cc3Cl)nc3ccccc32)c1`, the max log titer decrease was 8.6.
Molecule `c1ccc(N2CCN(Cc3nc4ccccc4[nH]3)CC2)nc1` has a max log titer decrease of 4.6.
`Cc1ccc(-n2c(SCC(=O)Nc3ncc(Cl)cc3Cl)nc3ccccc32)cc1` was tested, and the max log titer decrease was 8.6.
`c1csc(-c2nn3c(Cn4cnc5ccccc54)nnc3s2)c1` gave a max log titer decrease of 5.14.
`CCOC(=O)c1ccc2[nH]c3c(c2c1)CN(C)CC3` was tested, and the max log titer decrease was 9.13.
Molecule `COC(=O)c1ccc(NC2c3ncccc3C(=O)N2Cc2cccs2)cc1` (stereo unspecified) has a max log titer decrease of 5.08.
Molecule `CCc1nc(SCC(=O)N2c3ccccc3CC2C)c2c(C)c(C)sc2n1` (stereo unspecified) has a max log titer decrease of 9.13.
With `CSc1nnc(Cn2c(=O)sc3ccccc32)n1-c1cccc(Cl)c1` the max log titer decrease was 5.47.
Work on `Cc1ccc(NC(=O)C2CCCN2S(=O)(=O)c2cccc3cccnc23)c(C)c1` (stereo unspecified) yielded a max log titer decrease of 8.58.
`Cc1ccc(OCCn2c(C3CC(=O)N(Cc4ccccc4)C3)nc3ccccc32)cc1` (stereo unspecified) was tested, and the max log titer decrease was 8.6.
`O=C(CCCOc1ccc(Cl)cc1Cl)Nc1ccccc1C(=O)O` showed a max log titer decrease of 8.03.
Work on `O=C(Nc1ccc(N2CCCCC2)c(Cl)c1)c1cccnc1` yielded a max log titer decrease of 9.13.
`COC(=O)C1=C(C)N(Cc2ccccc2)C(=O)NC1c1ccccc1` (stereo unspecified) was tested, and the max log titer decrease was 9.13.
`CCCC(c1nnnn1CC(=O)OCC)N(Cc1cc2c(C)cc(C)cc2[nH]c1=O)C1CCCC1` (stereo unspecified) showed a max log titer decrease of 9.13.
